According to article PMC10945501, “Development and In Vivo Evaluation of Small-Molecule Ligands for Positron Emission Tomography of Immune Checkpoint Modulation Targeting Programmed Cell Death 1 Ligand 1” (Journal of Medicinal Chemistry, 2024):
Values joined by “and” are separate entries in the source; they are usually repeats but may differ in a detail not shown here. Equal entries are not always repeated. Where two headings read alike, the source gives them in different places. Blank lines part the entries; values can stand above or below the molecule they belong to.

What was measured:
[1] = tested on: PD-L1; conditions: cited from earlier work
[2] = tested on: CHO-hPD-L1 cells; experiment: MTT cell viability assay; format: cell-based, Chinese hamster; conditions: Cricetulus griseus, 24 h
[3] = molecular target: T1, human PD-L1 (Homo sapiens, UniProt Q9NZQ7); experiment: HTRF PD-1/PD-L1 binding assay (cell-free); conditions: for fold decrease in affinity by methylation at R3*: pairs 4c vs 5a, 4c vs 5b, 4e vs 5c, 4e vs 5d; for IC50: cell-free competitive PD-1/PD-L1 HTRF, mean ± SD, read-out: IC50 (hPD-L1 binding affinity, HTRF); for fold decrease in affinity by fluoroethylation / fluoroethyl carbamylation at R3*: pairs 4f vs 5h, 4j vs 5j
T1 construct: purchased Cisbio Bioassays SAS, Codolet, France 64PD1PEG
T1 sequence (Q9NZQ7 19-238 limits assumed): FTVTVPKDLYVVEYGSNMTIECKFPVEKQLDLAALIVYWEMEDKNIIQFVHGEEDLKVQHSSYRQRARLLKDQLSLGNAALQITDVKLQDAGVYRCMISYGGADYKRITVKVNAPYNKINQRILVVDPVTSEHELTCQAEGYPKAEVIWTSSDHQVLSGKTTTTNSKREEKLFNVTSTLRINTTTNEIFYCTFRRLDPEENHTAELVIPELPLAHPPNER

[4] = tested on: PD-L1-negative (CHO) cells; experiment: Competitive radioligand binding assay with [^89Zr]Zr-atezolizumab, PD-L1-negative cells; design: species or system Chinese hamster
Experimental: When 5a and 5c were administered at their highest noncytotoxic concentrations, a 50% blockade of antibody binding was observed (p = 0.034, p = 0.025, respectively).
Nonspecific binding of MultiScreen plates (Merck KGaA, Darmstadt, Germany) was blocked with additive-free Ham’s F-12 medium for 30 min, followed by the addition of 2 × 10^5 CHO-K1 (ATCC, Manassas, USA) or CHO-hPD-L1 cells in 150 μL of additive-free Ham’s F-12 medium per well. […] Supernatant was removed after 60 min of incubation using the MultiScreenHTS vacuum filtration system (Merck KGaA, Darmstadt, Germany) and cells were washed twice with DPBS. After drying, filters were punched and measured in a Wizard^2 γ counter (PerkinElmer, Waltham, USA).

[5] = Lipophilicity by HPLC method (μHPLC logD); conditions: for chromatographic logD: pH 7.4, μHPLC logD; for μHPLC logD: pH 7.4
[6] = molecular target: T2, PD-L1 (CHO-hPD-L1 cells) (Homo sapiens, UniProt Q9NZQ7); experiment: Competitive radioligand binding assay with [^89Zr]Zr-atezolizumab, PD-L1-positive cells; conditions: for % applied activity ([^89Zr]Zr-atezolizumab bound) / blockade of antibody binding: CHO-hPD-L1 cells; for % applied activity ([^89Zr]Zr-atezolizumab bound): preincubation with 5,000 nM blocker; for blockade of antibody binding: highest noncytotoxic concentration; for Ki: range contingent on published KD values of atezolizumab, read-out: Ki (Cheng–Prusoff)
T2 construct: host or cells: CHO (Chinese hamster ovary) cells, kept under G418 selection
T2 sequence (Q9NZQ7 19-290): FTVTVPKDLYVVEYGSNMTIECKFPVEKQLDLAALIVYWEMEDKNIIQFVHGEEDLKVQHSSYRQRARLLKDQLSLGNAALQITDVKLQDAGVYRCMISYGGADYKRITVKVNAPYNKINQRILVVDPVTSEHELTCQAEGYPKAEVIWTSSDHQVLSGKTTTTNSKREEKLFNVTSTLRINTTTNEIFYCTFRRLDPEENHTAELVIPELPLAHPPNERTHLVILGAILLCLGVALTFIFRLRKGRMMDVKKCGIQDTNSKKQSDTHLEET

[7] = literature IC50 as stated in the original patent, read-out: Lit. IC50
[8] = preincubation with 5,000 nM blocker
[9] = read-out: IC50 (Figure 1, previously reported ligands)

Molecule: Cc1c(COc2cc(CNC[C@@H](O)C(=O)O)ccc2C(F)(F)F)cccc1-c1ccc2c(c1)OCCO2 [BMS-114]
IC50 [1, 7]: 43 nM

Molecule: Cc1c(COc2ccc(CN[C@H](CO)C(=O)O)c(OCc3cccc(C#N)c3)c2)cccc1-c1ccccc1 [BMS-1016]
IC50 [1, 7]: 4.55 nM

Molecule: CC(=O)NCCNCc1ccc(OCc2cccc(-c3ccccc3)c2C)cc1OCc1ccc(C(=O)O)cc1 [BMS-1043]
IC50 [1, 7]: 239 nM

Molecule: CC(=O)NCCNCc1ccc(OCc2cccc(-c3ccccc3)c2C)cc1OCc1ccccc1[N+](=O)[O-] [BMS-1057]
IC50 [1, 7]: 986 nM

Molecule: CC(=O)NCCNCc1ccc(OCc2cccc(-c3ccccc3)c2C)cc1OCc1cccc(OC(F)(F)F)c1 [BMS-1082]
IC50 [1, 7]: 828 nM

Molecule: CC(=O)NCCNCc1ccc(OCc2cccc(-c3ccccc3)c2C)cc1OCc1cc(C#N)ccc1F [BMS-1095]
IC50 [1, 7]: 81.2 nM

Molecule: CC(=O)NCCNCc1ccc(OCc2cccc(-c3ccccc3)c2C)cc1OCc1ccc(F)c(C)c1 [BMS-1108]
IC50 [1, 7]: 624 nM

Molecule: CC(=O)NCCNCc1ccc(Oc2cccc(-c3ccccc3)c2C)cc1OCc1cccc(NC(=O)OC(C)(C)C)c1 [BMS-1119]
IC50 [1, 7]: 14200 nM

Molecule: Cc1c(COc2cc(OCc3cccc(C#N)c3)c(CN[C@H](CCO)C(=O)O)cc2Cl)cccc1-c1ccc2c(c1)OCCO2 [BMS-1205]
IC50 [1, 7]: 2.71 nM

Molecule: Cc1c(COc2cc(OCc3cccc(C#N)c3)c(CNC(C(=O)O)C(C)(C)O)cc2Cl)cccc1-c1ccc2c(c1)OCCO2 (stereo not shown) [BMS-1210]
IC50 [1, 7]: 12.7 nM

Molecule: Cc1c(COc2cc(OCc3cccc(C#N)c3)c(CNC(CO)(Cc3ccccc3)C(=O)O)cc2Cl)cccc1-c1ccc2c(c1)OCCO2 (stereo not shown) [BMS-1218]
IC50 [1, 7]: 10.1 nM

Molecule: Cc1c(COc2cc(OCc3cccc(C#N)c3)c(CNC3(C(=O)O)CCN(C)CC3)cc2Cl)cccc1-c1ccc2c(c1)OCCO2 [BMS-1220]
IC50 [1, 7]: 6.07 nM

Molecule: Cc1c(COc2ccc(CN[C@](C)(CO)C(=O)O)c(OCc3cccc(C#N)c3)c2Cl)cccc1-c1ccc2c(c1)OCCO2 [BMS-1239]
IC50 [1, 7]: 149 nM

Molecule: Cc1c(COc2cc(OCc3cncc(C#N)c3)c(CNC[C@@H](O)CC(=O)O)cc2Cl)cccc1-c1ccc2c(c1)OCCO2 [BMS-1250]
IC50 [1, 7]: 1.19 nM

Molecule: Cc1cc(CN2CCCC[C@@H]2C(=O)O)c(OCc2cncc(C#N)c2)cc1OCc1cccc(-c2ccc3c(c2)OCCO3)c1C [BMS-1288]
IC50 [1, 7]: 1.88 nM

Molecule: Cc1cc(CNCCO)c(OCc2cncc(C#N)c2)cc1OCc1cccc(-c2ccc3c(c2)OCCO3)c1C#N [BMS-1306]
IC50 [1, 7]: 0.92 nM

Molecule: Cc1c(COc2cc(OCc3cncc(C(=O)O)c3)c(CN[C@@H](CCCN)C(=O)O)cc2Cl)cccc1-c1ccc2c(c1)OCCO2 [BMS-2002]
IC50 [1, 7]: 10 nM

Molecule: Cc1c(COc2cc(OCc3cncc(C#N)c3)c(CN[C@@H](Cc3cccnc3)C(=O)O)cc2Cl)cccc1-c1ccc2c(c1)OCCO2 [BMS-2010]
IC50 [1, 7]: 50 nM

Molecule: Cc1c(COc2cc(OCc3cncc(S(C)(=O)=O)c3)c(CO)cc2Cl)cccc1-c1ccc2c(c1)OCCO2 [BMS-3013]
IC50 [1, 7]: 80 nM

Molecule: Cc1c(COc2cc(OCc3cncc(C#N)c3)c(CN[C@H](CC(N)=O)C(=O)O)cc2Cl)cccc1-c1ccc2c(c1)OCCO2 [BMS-3024]
IC50 [1, 7]: 5.54 nM

Molecule: COc1ccccc1COc1cc(OCc2cccc(-c3ccc4c(c3)OCCO4)c2C)c(Cl)cc1CN1CCCC[C@H]1C(=O)O [BMS-3029]
IC50 [1, 7]: 2350 nM

fold decrease in affinity by methylation at R3* ([3]; IC50 ratio): 1.02 fold
IC50 [3]: 6.2 ± 0.6 nM
chromatographic logD [5]: 3.36 ± 0.04
% applied activity ([^89Zr]Zr-atezolizumab bound) [6]: 4.2 % applied activity
Ki [6]: 700 to 4500 nM
Molecule: Cc1c(COc2cc(OCc3ccnc(C#N)c3)c(CN(C)[C@H](CO)C(=O)O)cc2Cl)cccc1-c1ccc2c(c1)OCCO2 [Compound 5a, N-(5-Chloro-2-((2-cyanopyridin-4-yl)methoxy)-4-((3-(2,3-dihydrobenzo[b][1,4]dioxin-6-yl)-2-methylbenzyl)oxy)benzyl)-N-methyl-D-serine]
EC50 ([2]; read-out: Relative EC50 (cell viability, MTT)): 20600 nM
% applied activity ([^89Zr]Zr-atezolizumab bound) [4, 8]: 0.2 % applied activity
blockade of antibody binding [6]: 50%

fold decrease in affinity by methylation at R3* ([3]; IC50 ratio): 1.32 fold
IC50 [3]: 10 nM and 10.2 nM
μHPLC logD [5]: 4.9 ± 0.3
chromatographic logD [5]: 4.93 ± 0.27
% applied activity ([^89Zr]Zr-atezolizumab bound) [6]: 4.7 % applied activity
Ki [6]: 700 to 4500 nM
Molecule: Cc1c(COc2cc(OCc3ccnc(C#N)c3)c(CN(C)CCO)cc2Cl)cccc1-c1ccc2c(c1)OCCO2 [Compound 5c, 4-((4-Chloro-5-((3-(2,3-dihydrobenzo[b][1,4]dioxin-6-yl)-2-methylbenzyl)oxy)-2-(((2-hydroxyethyl)(methyl)amino)methyl)phenoxy)methyl)picolinonitrile]
EC50 ([2]; CHO-hPD-L1 cells, read-out: EC50 (cell viability, MTT)): 11600 nM
% applied activity ([^89Zr]Zr-atezolizumab bound) [4, 8]: 0.1 % applied activity
blockade of antibody binding [6]: 50%

fold reduction of affinity, pyrrole at R1 vs 1,4-benzodioxanyl analogue ([3]; IC50 ratio, pairs 4c vs 4m, 4e vs 4n, 4f vs 4o, 5c vs 5f): 1.61 fold
IC50 [3]: 16 ± 4 nM
μHPLC logD [5]: 4.5 ± 0.2
chromatographic logD [5]: 4.54 ± 0.21
Molecule: Cc1c(COc2cc(OCc3ccnc(C#N)c3)c(CN(C)CCO)cc2Cl)cccc1-n1cccc1 [Compound 5f, 4-((4-Chloro-2-(((2-hydroxyethyl)(methyl)amino)methyl)-5-((2-methyl-3-(1H-pyrrol-1-yl)benzyl)oxy)phenoxy)methyl)picolinonitrile]

IC50 [3]: 12 ± 2 nM
chromatographic logD [5]: > 5.75
Molecule: Cc1c(COc2cc(OCc3ccnc(C#N)c3)c(CN3CCOC3CF)cc2Cl)cccc1-c1ccc2c(c1)OCCO2 (stereo not shown) [Compound 5g, 4-((4-Chloro-5-((3-(2,3-dihydrobenzo[b][1,4]dioxin-6-yl)-2-methylbenzyl)oxy)-2-((2-(fluoromethyl)oxazolidin-3-yl)methyl)phenoxy)methyl)picolinonitrile]

fold decrease in affinity by fluoroethylation / fluoroethyl carbamylation at R3* ([3]; IC50 ratio): 265 fold
IC50 [3]: 1290 nM
chromatographic logD [5]: > 5.75
Molecule: Cc1c(COc2cc(OCc3ccnc(C#N)c3)c(CN3CCCC[C@H]3C(=O)OCCF)cc2Cl)cccc1-c1ccc2c(c1)OCCO2 [Compound 5h, 2-Fluoroethyl (S)-1-(5-Chloro-2-((2-cyanopyridin-4-yl)methoxy)-4-((3-(2,3-dihydrobenzo[b][1,4]dioxin-6-yl)-2-methylbenzyl)oxy)benzyl)piperidine-2-carboxylate]

Molecule: Cc1c(COc2cc(OCc3ccnc(C#N)c3)c(CNCCF)cc2Cl)cccc1-c1ccc2c(c1)OCCO2 [Compound 5i, 4-((4-Chloro-5-((3-(2,3-dihydrobenzo[b][1,4]dioxin-6-yl)-2-methylbenzyl)oxy)-2-(((2-fluoroethyl)amino)methyl)phenoxy)methyl)picolinonitrile]
IC50 [3]: 12 ± 1 nM
μHPLC logD [5]: 5.2 ± 0.3
chromatographic logD [5]: 5.21 ± 0.31

fold decrease in affinity by fluoroethylation / fluoroethyl carbamylation at R3* ([3]; IC50 ratio): 160 fold
IC50 [3]: 1700 nM
chromatographic logD [5]: 4.9 ± 0.3
Molecule: CC(=O)NCCN(Cc1cc(Cl)c(OCc2cccc(-c3ccc4c(c3)OCCO4)c2C)cc1OCc1cccc(C#N)c1)C(=O)OCCF [Compound 5j, 2-Fluoroethyl (2-acetamidoethyl)(5-chloro-2-((3-cyanobenzyl)oxy)-4-((3-(2,3-dihydrobenzo[b][1,4]dioxin-6-yl)-2-methylbenzyl)oxy)benzyl)carbamate]

Molecule: N#Cc1cncc(COc2cc(OCc3cccc(-c4ccccc4)c3Br)c(Cl)cc2CN2CCCC[C@H]2C(=O)O)c1 [Example 8]
IC50 [1, 9]: 0.01 to 0.1 nM

Molecule: N#Cc1cc(COc2cc(OCc3cccc(-c4ccc5c(c4)OCCO5)c3Br)c(Cl)cc2CN2CCCC[C@H]2C(=O)O)ccn1 [Example 15]
IC50 [1, 9]: 0.001 to 0.01 nM

Molecule: COc1cc(OCc2cccc(-c3ccccc3)c2C)cc(OC)c1CN1CCCC[C@H]1C(=O)O [PD-1/PD-L1 Inhibitor 1, reference compound]
EC50 ([2]; read-out: EC50 (cell viability, MTT)): 52300 nM

IC50 [3]: 4.1 nM
Molecule: atezolizumab: high-affinity anti-PD-L1 antibody used for reference [reference compound]
% applied activity ([^89Zr]Zr-atezolizumab bound) ([4]; preincubation with 200 nM blocker): 0.1 % applied activity
